This note sets out measurements from US6710048B2, “Pyrazine derivatives as modulators of tyrosine kinases” (Ortho-McNeil Pharmaceutical, Inc., priority 2000, dated 2004).

Assay type in all cases: cell-based
Experiment [1] has as its system HeLa cervical adenocarcinoma. In words: Cell proliferation assay (14C-thymidine incorporation), HeLa. As to conditions: Homo sapiens, read-out: Inhibition of cell proliferation IC50. The protocol:
(§1) The ability of a test compound to inhibit the proliferation of cell growth was determined by measuring incorporation of ^14C-labelled thymidine into newly synthesized DNA within the cells. This method was used on cell lines derived from carcinomas originating from several tissues such as HeLa cervical adenocarcinoma (American Type Culture Collection (ATCC), Virginia, Cat. #CCL-2), A375 malignant melanoma (ATCC CRL-1619), SK-OV-3 ovarian adenocarcinoma (ATCC HTB-77) HCT-116 colon carcinoma (CCL-247) and PC-3 prostate adenocarcinoma (ATCC CRL-1435). The method was also used on primary cells such as HUVEC endothelial cells (ATCC CRL-1730). In this way the effect of a compound on cell growth of cells with many different phenotypes can be determined. Cells were trypsinized and counted and 3000-8000 cells were added to each well of a 96-well CytoStar tissue culture treated scintillating microplate (Amersham #RPNQ0160) in complete medium in a volume of 100 μl. Cells were incubated for 24 hours in complete medium at 37° C. in an atmosphere containing 5% CO2.
(§2) Next, 1 μl of test compound in 100% DMSO was added to the wells of the plate. DMSO only was added to control wells. Cells were incubated for 24 more hours in complete medium at 37° C. in an atmosphere containing 5% CO2. Methyl ^14C-thymidine 56 mCi/mmol (NEN #NEC568 or Amersham #CFA532) was diluted in complete medium and 0.2 μCi/well was added to each well of the CytoStar plate in a volume of 20 μl. The plate was incubated for 24 hours at 37° C. plus 5% CO2 in drug plus ^14C-thymidine. The contents of the plate were discarded into a ^14C radioactive waste container by inverting the plate and the plate was washed twice with 200 μl PBS. 200 μl of PBS is then added to each well. The top of the plate was sealed with a transparent plate sealer and a white plate backing sealer (Packard #6005199) was applied to the bottom of the plate. The degree of Methyl ^14C-thymidine incorporation was quantified on a Packard Top Count.

Experiment [2] concerns SK-OV-3 ovarian adenocarcinoma. In words: Cell proliferation assay (14C-thymidine incorporation), SK-OV-3. As to conditions: Homo sapiens, read-out: Inhibition of cell proliferation IC50. The protocol: as §1, §2
For orientation: Uptake of a labelled nucleoside into DNA is a usual measure of proliferation.

For a further experiment, the system named is MDA-MB-231. In words: Cell proliferation assay (14C-thymidine incorporation), MDA-MB-231. As to conditions: Homo sapiens, read-out: Inhibition of cell proliferation IC50. The protocol: as §1, §2
Another experiment has as its system HCT-116 colon carcinoma. In words: Cell proliferation assay (14C-thymidine incorporation), HCT-116. Particulars: Homo sapiens, read-out: Inhibition of cell proliferation IC50. The protocol: as §1, §2
The subject of a further experiment is rat aortic ring. The experiment in a line: Rat aortic ring assay (vascular sprouting). Particulars: 192 h; rat aortic ring in fibrin gel, analyzed on day 8; read-out: Inhibition of Vascular Sprouting (IC50μM). The protocol: The rat aortic ring assay is a rapid in vitro assay that measures new capillary growth in an environment that closely approximates the in vivo conditions of the extracellular matrix. The assay was performed as described (Nicosia, R F and Ottinetti, A. Growth of new microvessels in serum-free matrix culture of rat aorta. Lab Invest., 63: 115-122, 1990). Thoracic aortas were removed from 1 to 2-month old male Sprague-Dawley rats and transferred to a culture dish containing serum-free MCDB 131 medium (Clonetics). Extraneous tissue was removed and the aorta was sectioned into rings approximately 1 mm long and rinsed 8-10 times in serum-free medium. A solution of sterile 1.5% agarose (Type VI-A, Sigma, St. Louis, Mo.) was added to the wells of a 6-well plate. The wells were filled with clotting fibrinogen solution and an aortic ring was transferred into the well positioned with the lumen oriented horizontally in the center of the fibrin gel solution. The fibrinogen solution was prepared in MCDB 131 medium with bovine fibrinogen at 3 mg/ml. Clotting was initiated by adding 20 μl of a 50 NIH units/ml bovine thrombin solution and the fibrin gel generally formed within 30 seconds. The fibrinolytic inhibitor amino-n-caproic acid was added to the culture medium at 300 µg/ml (microgram per milliliter) for the first four days of the assay and at 50 μg/ml from day 5 to day 8. Once the fibrin gel solution solidified, 5 ml of serum-free MCDB 131 media containing 100 μg/ml penicillin, 100 μg/ml streptomycin and 0.25 μg/ml amphotericin B was added to each well. Explants were incubated at 37° C. with 5% CO2 for 8 days. Medium was replaced every 2-3 days and the assay was analyzed on day 8. Inhibition of vascular sprouting was measured by adding test compounds diluted in DMSO.

The test system of experiment [3] is PC-3 prostate adenocarcinoma. The experiment in a line: Cell proliferation assay (14C-thymidine incorporation), PC-3. As to conditions: Homo sapiens, read-out: Inhibition of cell proliferation IC50. The protocol:
as §1, §2

With `OCCCNc1cncc(-c2cncc(Nc3cccc(Cl)c3)n2)c1` [Cmd 4, 3-[[5-[6-[(3-chlorophenyl)amino]pyrazinyl]-3-pyridinyl]amino]-1-propanol], the IC50 worked out at 4.56 µM in experiment [1]; 3 µM in experiment [2]; 3.26 µM in the experiment with MDA-MB-231; 8.35 µM with HCT-116 colon carcinoma; 0.099 µM in the experiment with rat aortic ring; 11.3 µM in experiment [3].

Take `OCCCCNc1cncc(-c2cncc(Nc3cccc(Cl)c3)n2)c1` [Cmd 32, 4-[[5-[6-[(3-chlorophenyl)amino]pyrazinyl]-3-pyridinyl]amino]-1-butanol]: the IC50 in experiment [1] is 86.4 µM; in experiment [2], 14.6 µM; with MDA-MB-231, 27.6 µM; in the experiment with HCT-116 colon carcinoma, 23.5 µM; in the experiment on rat aortic ring it was 0.83 µM; in experiment [3], 67.6 µM.

For the compound `CN(C)CCCNc1cncc(-c2cncc(Nc3cccc(Cl)c3)n2)c1` [Cmd 35, N^1-[5-[6-[(3-chlorophenyl)amino]pyrazinyl]-3-pyridinyl]-N^3,N^3-dimethyl-1,3-propanediamine], the IC50 was over 100 µM in experiment [1]; 19.3 µM in experiment [2]; 98.3 µM with MDA-MB-231; over 100 µM in the experiment with HCT-116 colon carcinoma; over 1 µM with rat aortic ring; over 100 µM in experiment [3].
